Each structure is given as a SMILES string. Values after ≈ are worked out from the molar mass of the structure shown. Bounds are passed on as bounds.

What all share (format): cell-based
In assay [1] the test system is Aspergillus fumigatus AF210. In words: MIC, RPMI medium. The conditions noted are these: for MIC: Aspergillus fumigatus, AF210, MIC banded into grades, read-out: MIC grade, A. fumigatus 210; for MIC grade, A. fumigatus 210: MIC banded into grades. An outline of the steps: (§1)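 Broth microdilution in RPMI medium with 2% glucose and 0.135 M MOPS (pH 7.0); compounds as doubling dilutions over 50-0.05 mg/L, inoculum 1−2×10^4 cfu/mL. Plates incubated 24-48 h at 35° C; OD 485 nm read, MIC being lowest concentration giving >80% growth inhibition versus drug-free control.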

The subject of assay [2] is Aspergillus flavus. As to the kind of experiment: MIC, RPMI medium. The conditions noted are these: MIC banded into grades; for MIC: Aspergillus flavus, read-out: MIC grade, A. flavus. The method in brief:
as §1

In assay [3] the test system is Aspergillus terreus AT49. As to the kind of experiment: MIC, RPMI medium. Particulars: for MIC: Aspergillus terreus, AT49, MIC banded into grades, read-out: MIC grade, A. terreus 49; for MIC grade, A. terreus 49: MIC banded into grades. The method in brief:
as §1

Assay [4] has as its system Aspergillus fumigatus AF293. In words: MIC, RPMI medium. The conditions noted are these: for MIC: Aspergillus fumigatus, AF293, MIC banded into grades, read-out: MIC grade, A. fumigatus; for MIC grade, A. fumigatus: MIC banded into grades. The method in brief:
as §1

The test system of assay [5] is Aspergillus terreus AT4. As to the kind of experiment: MIC, RPMI medium. The conditions noted are these: for MIC: Aspergillus terreus, AT4, MIC banded into grades, read-out: MIC grade, A. terreus; for MIC grade, A. terreus: MIC banded into grades. An outline of the steps: as §1
In assay [6] the test system is Aspergillus niger. As to the kind of experiment: MIC, RPMI medium. Particulars: MIC banded into grades; for MIC: Aspergillus niger, read-out: MIC grade, A. niger. The method in brief: as §1
The test system of assay [7] is Aspergillus fumigatus AF210. In words: MIC, YAG medium. The conditions noted are these: 24 h at 35° C, MIC banded into grades; for MIC: Aspergillus fumigatus, read-out: MIC grade, A. fumigatus 210. The method in brief:
(§2)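 Endpoint is growth at OD 485 nm after 24 h at 35° C, with MIC defined as the lowest drug level giving >70% inhibition relative to untreated wells and recorded in mg/L. Tests ran in YAG broth with 1−2×10^4 cfu/mL spore inocula from Sabouraud-grown cultures. Drug ranges were 50-0.05 mg/L, repeated at 0.5-0.0005 mg/L when needed.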

For assay [8], the system named is Aspergillus flavus. In words: MIC, YAG medium. The conditions noted are these: 24 h at 35° C, MIC banded into grades; for MIC: Aspergillus flavus, 24 h, read-out: MIC grade, A. flavus. An outline of the steps:
as §2

The subject of assay [9] is Aspergillus terreus AT49. In words: MIC, YAG medium. The conditions noted are these: 24 h at 35° C, MIC banded into grades; for MIC: Aspergillus terreus, read-out: MIC grade, A. terreus 49. The method in brief:
as §2

For assay [10], the system named is Aspergillus fumigatus AF293. In words: MIC, YAG medium. The conditions noted are these: 24 h at 35° C, MIC banded into grades; for MIC: Aspergillus fumigatus, read-out: MIC grade, A. fumigatus. An outline of the steps:
as §2

In assay [11] the test system is Aspergillus terreus AT4. As to the kind of experiment: MIC, YAG medium. Particulars: 24 h at 35° C, MIC banded into grades; for MIC: Aspergillus terreus, read-out: MIC grade, A. terreus. The method in brief:
as §2

For assay [12], the system named is Aspergillus niger. In words: MIC, YAG medium. The conditions noted are these: 24 h at 35° C, MIC banded into grades; for MIC: Aspergillus niger, read-out: MIC grade, A. niger. An outline of the steps: as §2

For orientation: MIC means the lowest concentration found to suppress growth. Take `Cc1cc(C)nc(N2CCN(c3ccc(NC(=O)C(=O)c4c(-c5ccccc5)cc(C)n4Cc4ccccc4)cc3)CC2)c1` [Example 48, 2-(1-Benzyl-5-methyl-3-phenyl-1H-pyrrol-2-yl)-N-{4-[4-(4,6-dimethyl-pyridin-2-yl)-piperazin-1-yl]-phenyl}-2-oxo-acetamide]: the MIC (in [1]; in the assay on Aspergillus flavus [2]; with Aspergillus terreus AT49 [3]; in assay [4]; in the assay with Aspergillus terreus AT4 [5]; in the assay with Aspergillus niger [6]) was above 10 µg/mL throughout. Moreover, the MIC in assay [7] was below 1 µg/mL; in the assay on Aspergillus flavus [8], above 10 µg/mL; with Aspergillus terreus AT49 [9] it was above 10 µg/mL; in assay [10], 1 to 10 µg/mL (≈ 1.71 to 17.1 µM); in the assay with Aspergillus terreus AT4 [11], above 10 µg/mL; with Aspergillus niger [12], above 10 µg/mL.

Turning to `COCCn1c(C)cc(-c2ccccc2)c1C(=O)C(=O)Nc1cccc2ncccc12` [Example 29, 2-[1-(2-Methoxy-ethyl)-5-methyl-3-phenyl-1H-pyrrol-2-yl]-2-oxo-N-quinolin-5-yl-acetamide], the MIC (in [1]; in the assay with Aspergillus flavus [2]; in the assay with Aspergillus terreus AT49 [3]; in assay [4]; with Aspergillus terreus AT4 [5]; in the assay on Aspergillus niger [6]) was above 10 µg/mL throughout. Also, the MIC (in assay [7]; in the assay on Aspergillus flavus [8]; in the assay on Aspergillus terreus AT49 [9]; in assay [10]; with Aspergillus terreus AT4 [11]; in the assay with Aspergillus niger [12]) was above 10 µg/mL in each case.

With `CCCNC(=O)C(=O)c1c(-c2ccccc2)ccn1CCOC` [Example 82, 2-[1-(2-Methoxy-ethyl)-3-phenyl-1H-pyrrol-2-yl]-2-oxo-N-propyl-acetamide], the minimal inhibitory concentration (MIC) (in assay [1]; in the assay on Aspergillus flavus [2]; in the assay with Aspergillus terreus AT49 [3]; in assay [4]; in the assay on Aspergillus terreus AT4 [5]; in the assay on Aspergillus niger [6]) was above 10 µg/mL each time. Also, the minimum inhibitory concentration (MIC) in assay [7] was 1 to 10 µg/mL (≈ 3.18 to 31.8 µM); with Aspergillus flavus [8], above 10 µg/mL; in the assay with Aspergillus terreus AT49 [9], 1 to 10 µg/mL (≈ 3.18 to 31.8 µM); in assay [10] it was 1 to 10 µg/mL (≈ 3.18 to 31.8 µM); in the assay with Aspergillus terreus AT4 [11] it was 1 to 10 µg/mL (≈ 3.18 to 31.8 µM); in the assay with Aspergillus niger [12] it was above 10 µg/mL.

`CCOCn1c(C)cc(-c2ccccc2)c1C(=O)C(=O)Nc1ccc(N2CCN(c3cc(C)cc(C)n3)CC2)cc1` [Example 132, N-{4-[4-(4,6-Dimethyl-pyridin-2-yl)-piperazin-1-yl]-phenyl}-2-(1-ethoxymethyl-5-methyl-3-phenyl-1H-pyrrol-2-yl)-2-oxo-acetamide]: the MIC in [1] was below 1 µg/mL; in the assay with Aspergillus flavus [2] it was above 10 µg/mL; in the assay with Aspergillus terreus AT49 [3], below 1 µg/mL; in [4] it was below 1 µg/mL; in the assay on Aspergillus terreus AT4 [5] it was below 1 µg/mL; in the assay on Aspergillus niger [6], below 1 µg/mL. The minimum inhibitory concentration (MIC) (in assay [7]; in the assay with Aspergillus flavus [8]; in the assay on Aspergillus terreus AT49 [9]; in [10]; in the assay on Aspergillus terreus AT4 [11]; in the assay on Aspergillus niger [12]) was below 1 µg/mL in each case.

`COC(=O)n1c(C)cc(-c2ccccc2)c1C(=O)C(=O)Nc1ccc(N2CCN(c3cc(C)cc(C)n3)CC2)cc1` [Example 56, 2-{4-[4-(4,6-Dimethyl-pyridin-2-yl)-piperazin-1-yl]-phenylaminooxalyl}-5-methyl-3-phenyl-pyrrole-1-carboxylic acid methyl ester]: the “MIC grade, A. fumigatus 210” value in assay [1] was 1 (a grade of 1 represents an MIC of greater than 10 mg/L); in assay [7], 2 (A grade of 2 represents an MIC of from 1 to 10 mg/L). Moreover, the “MIC grade, A. flavus” value against Aspergillus flavus [2] and with Aspergillus flavus [8] was 1 (a grade of 1 represents an MIC of greater than 10 mg/L) in each case. Moreover, the “MIC grade, A. terreus 49” value in the assay on Aspergillus terreus AT49 [3] was 1 (a grade of 1 represents an MIC of greater than 10 mg/L); against Aspergillus terreus AT49 [9], 2 (A grade of 2 represents an MIC of from 1 to 10 mg/L). Further, the “MIC grade, A. fumigatus” value in assay [4] is 1 (a grade of 1 represents an MIC of greater than 10 mg/L); in assay [10] it was 2 (A grade of 2 represents an MIC of from 1 to 10 mg/L). The “MIC grade, A. terreus” value is listed as 1 (a grade of 1 represents an MIC of greater than 10 mg/L) in the assay with Aspergillus terreus AT4 [5] and 2 (A grade of 2 represents an MIC of from 1 to 10 mg/L) against Aspergillus terreus AT4 [11]. In addition, the “MIC grade, A. niger” value in the assay with Aspergillus niger [6] was 1 (a grade of 1 represents an MIC of greater than 10 mg/L); in the assay with Aspergillus niger [12] it was 2 (A grade of 2 represents an MIC of from 1 to 10 mg/L).

In the case of `Cc1cc(-c2ccccc2)c(C(=O)C(=O)Nc2ccc(N3CCN(CC(C)(C)C)CC3)cc2F)n1C` [Example 112, 2-(1,5-Dimethyl-3-phenyl-1H-pyrrol-2-yl)-N-{4-[4-(2,2-dimethyl-propyl)-piperazin-1-yl]-2-fluoro-phenyl}-2-oxo-acetamide], the minimal inhibitory concentration (MIC) (in assay [1]; in the assay with Aspergillus flavus [2]; in the assay with Aspergillus terreus AT49 [3]; in [4]; in the assay with Aspergillus terreus AT4 [5]; in the assay with Aspergillus niger [6]) was below 1 µg/mL throughout. Also, the MIC (in [7]; in the assay with Aspergillus flavus [8]; in the assay on Aspergillus terreus AT49 [9]; in [10]; with Aspergillus terreus AT4 [11]; in the assay with Aspergillus niger [12]) was below 1 µg/mL throughout.

In the case of `Cc1cc(-c2ccccc2)c(C(=O)C(=O)Nc2ccc(N3CCN(Cc4ccccc4)CC3)cc2)n1C` [Example 144, N-[4-(4-Benzyl-piperazin-1-yl)-phenyl]-2-(1,5-dimethyl-3-phenyl-1H-pyrrol-2-yl)-2-oxo-acetamide], the MIC (in assay [1]; in the assay with Aspergillus flavus [2]; with Aspergillus terreus AT49 [3]; in assay [4]; in the assay on Aspergillus terreus AT4 [5]; in the assay on Aspergillus niger [6]) was below 1 µg/mL in each case. The MIC (in assay [7]; with Aspergillus flavus [8]; with Aspergillus terreus AT49 [9]; in [10]; with Aspergillus terreus AT4 [11]; in the assay on Aspergillus niger [12]) was below 1 µg/mL throughout.

As for `CCCc1cc(-c2ccccc2)c(C(=O)C(=O)Nc2ccc(N3CCN(c4cc(C)cc(C)n4)CC3)cc2)n1C` [Example 124, N-{4-[4-(4,6-Dimethyl-pyridin-2-yl)-piperizin-1-yl]-phenyl}-2-[1-methyl-3-phenyl-5-propyl-1H-pyrrol-2-yl)-2-oxo-acetamide], the results for the “MIC grade, A. fumigatus 210” value in assay [1] and in assay [7] were 2 (A grade of 2 represents an MIC of from 1 to 10 mg/L) and 3 (A grade of 3 represents an MIC of less than 1 mg/L), respectively. Moreover, the “MIC grade, A. flavus” value is 2 (A grade of 2 represents an MIC of from 1 to 10 mg/L) against Aspergillus flavus [2] and 3 (A grade of 3 represents an MIC of less than 1 mg/L) with Aspergillus flavus [8]. Moreover, the “MIC grade, A. terreus 49” value against Aspergillus terreus AT49 [3] is reported as 2 (A grade of 2 represents an MIC of from 1 to 10 mg/L); in the assay on Aspergillus terreus AT49 [9], 3 (A grade of 3 represents an MIC of less than 1 mg/L). The entries for the “MIC grade, A. fumigatus” value in [4] and in assay [10] were 2 (A grade of 2 represents an MIC of from 1 to 10 mg/L) and 3 (A grade of 3 represents an MIC of less than 1 mg/L), respectively. Besides, the “MIC grade, A. terreus” value in the assay with Aspergillus terreus AT4 [5] is reported as 2 (A grade of 2 represents an MIC of from 1 to 10 mg/L); in the assay on Aspergillus terreus AT4 [11] it was 3 (A grade of 3 represents an MIC of less than 1 mg/L). The “MIC grade, A. niger” value in the assay with Aspergillus niger [6] was 1 (a grade of 1 represents an MIC of greater than 10 mg/L); against Aspergillus niger [12], 3 (A grade of 3 represents an MIC of less than 1 mg/L).

On to `Cc1cc(-c2ccccc2)c(C(=O)C(=O)Nc2ccc(N3CCN(c4ccc(CN5CCOCC5)cn4)CC3)cc2)n1C` [Example 120, 2-(1,5-Dimethyl-3-phenyl-1H-pyrrol-2-yl)-N-{4-[4-(5-morpholin-4-ylmethyl-pyridin-2-yl)-piperazin-1-yl]-phenyl}-2-oxo-acetamide], for which the MIC (in [1]; in the assay on Aspergillus flavus [2]; in the assay with Aspergillus terreus AT49 [3]; in assay [4]; in the assay with Aspergillus terreus AT4 [5]; in the assay with Aspergillus niger [6]) was below 1 µg/mL in each case. The MIC (in assay [7]; in the assay with Aspergillus flavus [8]; with Aspergillus terreus AT49 [9]; in [10]; with Aspergillus terreus AT4 [11]; with Aspergillus niger [12]) was below 1 µg/mL in each case.
